The conditions of data set [1]: literature (Kawaguchi et al.; Fujisawa et al.); cited from earlier work.
The test system of data set [2] is kanamycin resistant bacteria. The note with it: literature (Kawaguchi et al.; Fujisawa et al.); cited from earlier work.
The next data set relates to Proteus mirabilis TB-617. Kind of data set: MIC (minimum inhibitory concentration). It counts as cell-based.
A further data set deals with Escherichia coli TB-705. Kind of data set: MIC (minimum inhibitory concentration). It is filed as cell-based. The following applies: TB705, Table 3.
The subject of data set [3] is Pseudomonas aeruginosa PP-6. Kind of data set: MIC (minimum inhibitory concentration). The note with it: tobramycin resistant organism.
Data set [4] relates to Escherichia coli W-677/JR 214. Kind of data set: MIC (minimum inhibitory concentration). The note with it: tobramycin resistant organism.
Data set [5] has as its system Klebsiella pneumoniae Kl-38. Kind of data set: MIC (minimum inhibitory concentration).
Data set [6] has as its system Staphylococcus aureus 80285. Kind of data set: MIC (minimum inhibitory concentration).
Data set [7] concerns Enterobacter cloacae CI-83. Kind of data set: MIC (minimum inhibitory concentration). The following applies: CI83.
Data set [8] deals with Serratia marcescens MA-26. Kind of data set: MIC (minimum inhibitory concentration). The following applies: MA26.
Data set [9] relates to Citrobacter freundii Ct-31. Kind of data set: MIC (minimum inhibitory concentration). The note with it: CT31.
For a further data set, the system named is Proteus rettgeri Ret 33. Kind of data set: MIC (minimum inhibitory concentration). The following applies: Providencia rettgeri, RET33.
For data set [10], the system named is Pseudomonas aeruginosa TM-121. Kind of data set: MIC (minimum inhibitory concentration).
The subject of data set [11] is Staphylococcus aureus ATCC 25923. Kind of data set: MIC (minimum inhibitory concentration).
Data set [12] has as its system Escherichia coli W-677/JR 762. Kind of data set: MIC (minimum inhibitory concentration).
Where [13] appears, read: Proteus mirabilis, TB617, Table 3, read-out: MIC.
Setting [14] is: Pseudomonas aeruginosa, PP6, Table 3.
The mark [15] stands for this setting: Escherichia coli, W677/JR214, Table 3.
Where [16] appears, read: Klebsiella pneumoniae, KL38, Table 3.
Where [17] appears, read: Proteus mirabilis, TB617, Table 2, read-out: MIC.
The mark [18] stands for this setting: Pseudomonas aeruginosa, PP6, Table 2.
Where [19] appears, read: Staphylococcus aureus, ATCC25923.
[20] abbreviates: Escherichia coli, W677/JR214, Table 2.
[21] abbreviates: Klebsiella pneumoniae, KL38, Table 2.
Where [22] appears, read: Table 2, tobramycin resistant organism.

One may read the MIC as the smallest concentration in the dilution series that meets the test's criterion for growth inhibition.

In brackets after ≈: the same amount, converted by molar mass. Where two headings read alike, the source gives them in different places.

For `NCC[C@H](O)C(=O)N[C@@H]1C[C@H](N)[C@@H](O[C@H]2O[C@H](CN)[C@@H](O)[C@H](O)[C@H]2O)[C@H](O)[C@H]1O[C@H]1O[C@H](CO)[C@@H](O)[C@H](N)[C@H]1O` [Amikacin, amikacin], the “toxicity compared with kanamycin” value in [1] is “approximately the same degree of the toxicity as kanamycin”. Moreover, in [2], the “effectiveness against kanamycin resistant bacteria” value was “effective against kanamycin resistant bacteria”.

Turning to `NC[C@H]1O[C@H](O[C@H]2[C@H](O)[C@@H](O[C@H]3O[C@H](CO)[C@@H](O)[C@H](N)[C@H]3O)[C@H](NC(=O)C3(O)CCNC3)C[C@@H]2N)[C@H](O)[C@@H](O)[C@@H]1O` (some centres unmarked) [KM-A der., 1-N-(3-hydroxypyrrolidine-3-carbonyl)-kanamycin A], the MIC in the data set on Proteus mirabilis TB-617 (setting [13]) amounted to 6.25 µg/mL (≈ 10.5 µM); in the data set on Escherichia coli TB-705, 25 µg/mL (≈ 41.8 µM); in data set [3] (setting [14]), 12.5 µg/mL (≈ 20.9 µM); in data set [4] (setting [15]), 6.25 µg/mL (≈ 10.5 µM); in data set [5] (setting [16]) it was 3.13 µg/mL (≈ 5.24 µM); in data set [6], 12.5 µg/mL (≈ 20.9 µM). Also, the MIC in data set [7] amounted to 3.13 µg/mL (≈ 5.24 µM); in data set [8] it was 6.25 µg/mL (≈ 10.5 µM); in data set [9], 3.13 µg/mL (≈ 5.24 µM); in the data set with Proteus rettgeri Ret 33, 1.56 µg/mL (≈ 2.61 µM).

For the compound `NC[C@H]1O[C@H](O[C@H]2[C@H](O)[C@@H](O[C@H]3O[C@H](CO)[C@@H](O)[C@H](N)[C@H]3O)[C@H](N)C[C@@H]2N)[C@H](O)[C@@H](O)[C@@H]1O` [KM-A, kanamycin A], the MIC in the data set on Proteus mirabilis TB-617 (setting [17]) is above 200 µg/mL; in the data set with Proteus mirabilis TB-617 (setting [13]), above 100 µg/mL; in the data set with Escherichia coli TB-705 it was above 100 µg/mL; in data set [3] (setting [18]), 200 µg/mL (≈ 413 µM); in [3] (setting [14]), above 100 µg/mL; in data set [10] (Pseudomonas aeruginosa, TM121) it was above 200 µg/mL. The MIC in data set [11] (setting [19]) is 6.25 µg/mL (≈ 12.9 µM); in data set [12] (Escherichia coli, W677/JR762), above 200 µg/mL; in data set [4] (setting [20]) it was above 200 µg/mL; in data set [4] (setting [15]), above 100 µg/mL; in [5] (setting [21]) it was above 200 µg/mL; in data set [5] (setting [16]), above 100 µg/mL. The minimal inhibitory concentration (MIC) (in data set [6]; in data set [7]; in [8]; in [9]; against Proteus rettgeri Ret 33) was above 100 µg/mL throughout.

On to `CN[C@@H]1[C@@H](O)[C@@H](O[C@@H]2[C@@H](O)[C@H](O[C@H]3OC(CN)=CC[C@H]3N)[C@@H](N)C[C@H]2N)OC[C@]1(C)O` [SSM, sisomicin], for which the minimal inhibitory concentration (MIC) in the data set on Proteus mirabilis TB-617 (setting [17]) was determined as 12.5 µg/mL (≈ 27.9 µM); in data set [3] (setting [18]) it was 200 µg/mL (≈ 447 µM); in data set [10] (Pseudomonas aeruginosa, TM121), 200 µg/mL (≈ 447 µM); in data set [11] (setting [19]), 1.56 µg/mL (≈ 3.49 µM); in [12] (Escherichia coli, W677/JR762), 50 µg/mL (≈ 112 µM); in [4] (setting [20]), 25 µg/mL (≈ 55.9 µM). The compound further displayed an MIC in data set [5] (setting [21]) of 0.39 µg/mL (≈ 0.871 µM).

With `NC[C@H]1O[C@H](O[C@H]2[C@H](O)[C@@H](O[C@H]3O[C@H](CO)[C@@H](O)[C@H](N)[C@H]3O)[C@H](NC(=O)C3(O)CCNCC3)C[C@@H]2N)[C@H](N)C[C@@H]1O` [TOB der.], the MIC with Proteus mirabilis TB-617 (setting [17]) came to 6.25 µg/mL (≈ 10.5 µM); in the data set on Proteus mirabilis TB-617 (setting [13]), 1.56 µg/mL (≈ 2.62 µM); against Escherichia coli TB-705, 3.13 µg/mL (≈ 5.26 µM); in data set [3] (setting [18]), 6.25 µg/mL (≈ 10.5 µM); in data set [3] (setting [14]), 3.13 µg/mL (≈ 5.26 µM); in data set [10] (Pseudomonas aeruginosa, TM121) it was 12.5 µg/mL (≈ 21 µM). The MIC is 1.56 µg/mL (≈ 2.62 µM) in data set [11] (setting [19]); 6.25 µg/mL (≈ 10.5 µM) in [12] (Escherichia coli, W677/JR762); 1.56 µg/mL (≈ 2.62 µM) in data set [4] (setting [20]); 0.78 µg/mL (≈ 1.31 µM) in data set [4] (setting [15]); 1.56 µg/mL (≈ 2.62 µM) in data set [5] (setting [21]); 0.78 µg/mL (≈ 1.31 µM) in data set [5] (setting [16]). Further, the MIC in data set [6] was found to be 0.39 µg/mL (≈ 0.656 µM); in data set [7], 0.78 µg/mL (≈ 1.31 µM); in data set [8] it was 12.5 µg/mL (≈ 21 µM); in [9], 0.78 µg/mL (≈ 1.31 µM); against Proteus rettgeri Ret 33, 0.78 µg/mL (≈ 1.31 µM).

For `NC[C@H]1O[C@H](O[C@H]2[C@H](O)[C@@H](O[C@H]3O[C@H](CO)[C@@H](O)[C@H](N)[C@H]3O)[C@H](N)C[C@@H]2N)[C@H](N)C[C@@H]1O` [TOB, tobramycin], the MIC with Proteus mirabilis TB-617 (setting [17]) is 12.5 µg/mL (≈ 26.7 µM); in the data set on Proteus mirabilis TB-617 (setting [13]), 12.5 µg/mL (≈ 26.7 µM); against Escherichia coli TB-705, 6.25 µg/mL (≈ 13.4 µM); in data set [3] (setting [18]) it was 50 µg/mL (≈ 107 µM); in data set [3] (setting [14]), above 100 µg/mL; in [10] (Pseudomonas aeruginosa, TM121), 100 µg/mL (≈ 214 µM). Further, the minimal inhibitory concentration (MIC) was 1.56 µg/mL (≈ 3.34 µM) in [11] (setting [19]); 100 µg/mL (≈ 214 µM) in data set [12] (Escherichia coli, W677/JR762); 50 µg/mL (≈ 107 µM) in data set [4] (setting [20]); 100 µg/mL (≈ 214 µM) in data set [4] (setting [15]); 3.13 µg/mL (≈ 6.69 µM) in [5] (setting [21]); 1.56 µg/mL (≈ 3.34 µM) in data set [5] (setting [16]). Moreover, the minimal inhibitory concentration (MIC) in data set [6] is 0.78 µg/mL (≈ 1.67 µM); in [7], 0.78 µg/mL (≈ 1.67 µM); in data set [8], 50 µg/mL (≈ 107 µM); in [9], 3.13 µg/mL (≈ 6.69 µM); in the data set with Proteus rettgeri Ret 33 it was 1.56 µg/mL (≈ 3.34 µM).

Consider gentamicin [GM], for which the minimum inhibitory concentration (MIC) against Proteus mirabilis TB-617 (Table 2) was 25 µg/mL; in data set [3] (Table 2) it was above 200 µg/mL; in data set [10] (setting [22]) it was 100 µg/mL; in data set [11] (Table 2), 0.78 µg/mL; in data set [12] (setting [22]) it was 100 µg/mL; in [4] (Table 2), 100 µg/mL. This compound also registered an MIC in data set [5] (Table 2) of 0.78 µg/mL.

The record behind these values is US4166114A, “Aminoglycoside antibiotic derivatives and method of use” (Shionogi & Co., Ltd., priority 1976, dated 1979).
